Values of other authors, collected in patent publication US20250205255A1, “PHOSPHOLIPID COMPOSITIONS FOR TREATING INFECTIONS AND INFLAMMATION” (Celestial Therapeutics, Inc., priority 2022, published 2025).

Columns and labels:
[1] = tested on: Toll-like receptor 4 (TLR4) interacting proteins CD14 and MD-2; conditions: through direct interactions with CD14 and MD-2
[2] = tested on: Respiratory Syncytial Virus (RSV); conditions: bronchial epithelial cells

inflammatory responses induced by lipopolysaccharide [1]: markedly attenuate
Structure (SMILES): CCCCCCCC/C=C\CCCCCCCC(=O)O[C@H](COC(=O)CCCCCCCCCCCCCCC)COP(=O)(O)OCC(O)CO (mixture of isomers) [POPG, 1-Palmitoy-2-loleoyl-sn-glycerol-3-phospho-(1′-rac-glycerol)]
cytopathic effects induced by RSV [2]: significantly inhibited
interleukin-6 production ([2]; induced by RSV): significantly inhibited
interleukin-8 production ([2]; induced by RSV): significantly inhibited
